{
  "source": "ChEMBL document CHEMBL5321281",
  "about": "“Synthesis and Biological Evaluation of Heterocyclic Ring-Fused 20(S)-Protopanaxadiol Derivatives as Potent Antiosteoporosis Agents” (J Med Chem, 2023)",
  "key": {"Mus musculus [1]": {"tested_on": "Mus musculus", "experiment": "Protective effect in ovariectomy induced osteoporosis C57BL/6 mouse model assessed as inhibition of OVX-induced osteoblast activity by analysing osteoblast number in proximal femur at 3 mg/kg, ip and measured after 6 weeks by TRAP staining based microscopic analysis", "type": "functional, organism-based"}, "BMMC [2]": {"tested_on": "BMMC", "experiment": "Cytotoxicity against C57/BL6 mouse BMMC cells assessed as reduction in cell viability at 10 uM incubated for 24 hrs by CCK-8 assay", "type": "toxicity, cell-based"}, "BMMC [3]": {"tested_on": "BMMC", "experiment": "Anti-osteoclastogenic activity in C57/BL6 mouse BMMC cells assessed as inhibition of RANKL-induced osteoclast differentiation at 0.1 uM incubated for 5 to 7 days in presence of M-CSF by TRAP staining based microscopic analysis relative to control", "type": "functional", "conditions": "time 5-7 day"}, "BMMC [4]": {"tested_on": "BMMC", "experiment": "(§1) Anti-osteoclastogenic activity in C57/BL6 mouse BMMC cells assessed as inhibition of RANKL-induced osteoclast differentiation at 0.01 uM incubated for 5 to 7 days in presence of M-CSF by TRAP staining based microscopic analysis relative to control", "type": "functional", "conditions": "time 5-7 day"}, "BMMC [5]": {"tested_on": "BMMC", "experiment": "Anti-osteoclastogenic activity in C57/BL6 mouse BMMC cells assessed as inhibition of RANKL-induced osteoclast differentiation incubated for 5 to 7 days in presence of M-CSF by TRAP staining based microscopic analysis relative to control", "type": "functional, cell-based"}, "[6]": {"experiment": "Microsomal stability in mouse liver microsomes assessed as half life at 1 uM and measured upto 60 mins by LC-MS/ MS analysis", "type": "ADME, Microsome"}, "[7]": {"experiment": "Microsomal stability in mouse liver microsomes assessed as intrinsic clearance at 1 uM and measured upto 60 mins by LC-MS/ MS analysis", "type": "ADME, Microsome", "conditions": "read-out: CLH"}, "[8]": {"experiment": "Tmax in ICR mouse at 1 mg/kg, iv and measured upto 24 hrs by LC-MS/MS analysis", "type": "ADME, organism-based", "conditions": "in vivo"}, "[9]": {"experiment": "Cmax in ICR mouse at 1 mg/kg, iv and measured upto 24 hrs by LC-MS/MS analysis", "type": "ADME, organism-based", "design": "dose 1 mg/kg, time < 24 hrs, route iv", "conditions": "in vivo"}, "[10]": {"experiment": "AUCt in ICR mouse at 1 mg/kg, iv and measured upto 24 hrs by LC-MS/MS analysis", "type": "ADME, organism-based", "design": "dose 1 mg/kg, time < 24 hrs, route iv", "conditions": "in vivo"}, "[11]": {"experiment": "AUC (0 to infinity) in ICR mouse at 1 mg/kg, iv and measured upto 24 hrs by LC-MS/MS analysis", "type": "ADME, organism-based", "design": "dose 1 mg/kg, time < 24 hrs, route iv", "conditions": "in vivo"}, "[12]": {"experiment": "Apparent volume of distribution in ICR mouse at 1 mg/kg, iv and measured upto 24 hrs by LC-MS/MS analysis", "type": "ADME, organism-based", "conditions": "in vivo, read-out: Vz"}, "[13]": {"experiment": "Clearance in ICR mouse at 1 mg/kg, iv and measured upto 24 hrs by LC-MS/MS analysis", "type": "ADME, organism-based", "conditions": "in vivo"}, "[14]": {"experiment": "Half life in ICR mouse at 1 mg/kg, iv and measured upto 24 hrs by LC-MS/MS analysis", "type": "ADME, organism-based", "conditions": "in vivo"}, "[15]": {"experiment": "Tmax in ICR mouse at 10 mg/kg, po and measured upto 24 hrs by LC-MS/MS analysis", "type": "ADME, organism-based", "conditions": "in vivo"}, "[16]": {"experiment": "Cmax in ICR mouse at 10 mg/kg, po and measured upto 24 hrs by LC-MS/MS analysis", "type": "ADME, organism-based", "design": "dose 10 mg/kg, time < 24 hrs, route po", "conditions": "in vivo"}, "[17]": {"experiment": "AUCt in ICR mouse at 10 mg/kg, po and measured upto 24 hrs by LC-MS/MS analysis", "type": "ADME, organism-based", "design": "dose 10 mg/kg, time < 24 hrs, route po", "conditions": "in vivo"}, "[18]": {"experiment": "AUC (0 to infinity) in ICR mouse at 10 mg/kg, po and measured upto 24 hrs by LC-MS/MS analysis", "type": "ADME, organism-based", "design": "dose 10 mg/kg, time < 24 hrs, route po", "conditions": "in vivo"}, "BMMC [19]": {"tested_on": "BMMC", "experiment": "Anti-osteoclastogenic activity in C57/BL6 mouse BMMC cells assessed as reduction in RANKL-induced TRAP mRNA expression level at 0.1 uM incubated for 1 to 5 days in presence of M-CSF by qRT-PCR analysis", "type": "functional, cell-based", "conditions": "time 1-5 day, TDE = time-dependent effect"}, "BMMC [20]": {"tested_on": "BMMC", "experiment": "as §1, with “differentiation by measuring number of TRAP-positive multinucleated cells” for “differentiation”, “0.01 to 5” for “0.01”", "type": "functional, cell-based", "conditions": "dose 0.01-5 µM, time 5-7 day"}, "BMMC [21]": {"tested_on": "BMMC", "experiment": "Anti-osteoclastogenic activity in C57/BL6 mouse BMMC cells assessed as inhibition of RANKL-induced osteoclast differentiation by observing number of TRAP-positive multinucleated cells at 1 uM and compound added at different times and measured after 7 days in presence of M-CSF by TRAP staining based microscopic analysis relative to control", "type": "functional, cell-based", "conditions": "time 7.0 day, TDE = time-dependent effect"}, "BMMC [22]": {"tested_on": "BMMC", "experiment": "Anti-osteoclastogenic activity in C57/BL6 mouse BMMC cells assessed as inhibition of RANKL-stimulated osteoclastogenesis at 1 uM and compound added at day 1 to 3 (early stage) and measured after 7 days in presence of M-CSF by TRAP staining based microscopic analysis relative to control", "type": "functional", "conditions": "168 h, time 7 day"}, "BMMC [23]": {"tested_on": "BMMC", "experiment": "Anti-osteoclastogenic activity in C57/BL6 mouse BMMC cells assessed as inhibition of RANKL-stimulated osteoclastogenesis at 1 uM and compound added at day 3 to 5 (mid stage) and measured after 5 days in presence of M-CSF by TRAP staining based microscopic analysis relative to control", "type": "functional", "conditions": "120 h, time 5 day"}, "BMMC [24]": {"tested_on": "BMMC", "experiment": "Anti-osteoclastogenic activity in C57/BL6 mouse BMMC cells assessed as inhibition of RANKL-stimulated osteoclastogenesis at 1 uM and compound added at day 5 to 7 (late stage) and measured after 3 days in presence of M-CSF by TRAP staining based microscopic analysis relative to control", "type": "functional", "conditions": "72 h, time 3 day"}, "BMMC [25]": {"tested_on": "BMMC", "experiment": "Anti-osteoclastogenic activity in C57/BL6 mouse BMMC cells assessed as reduction in RANKL-induced ATPase v0d2 mRNA expression level at 0.1 uM incubated for 1 to 5 days in presence of M-CSF by qRT-PCR analysis", "type": "functional, cell-based", "conditions": "time 1-5 day, TDE = time-dependent effect"}, "BMMC [26]": {"tested_on": "BMMC", "experiment": "Anti-osteoclastogenic activity in C57/BL6 mouse BMMC cells assessed as reduction in RANKL-induced TRAP protein expression level at 0.1 uM incubated for 1 to 3 days in presence of M-CSF by Western blot anlaysis", "type": "functional, cell-based", "conditions": "time 1-3 day"}, "BMMC [27]": {"tested_on": "BMMC", "experiment": "Anti-osteoclastogenic activity in C57/BL6 mouse BMMC cells assessed as reduction in RANKL-induced MMP-9 protein expression level at 0.1 uM incubated for 1 to 3 days in presence of M-CSF by Western blot anlaysis", "type": "functional, cell-based", "conditions": "time 1-3 day"}, "MC3T3-E1": {"tested_on": "MC3T3-E1", "experiment": "Induction of osteoblastogenesis in beta-glycerophosphate and vitamin C stimulated mouse MC3T3-E1 cells assessed as increase in ALP activity at 0.1 uM incubated for 7 days by ALP staining based microscopic analysis", "type": "functional, cell-based", "conditions": "time 7.0 day"}, "[28]": {"experiment": "Toxicity in ovariectomy induced osteoporosis C57BL/6 mouse model assessed as body weight change at 1 to 3 mg/kg, ip and measured for 6 weeks", "type": "organism-based", "conditions": "in vivo, 1008 h, dose 1-3 mg/kg"}, "Mus musculus [29]": {"tested_on": "Mus musculus", "experiment": "Protective effect in ovariectomy induced osteoporosis C57BL/6 mouse model assessed as increase in bone volume/tissue volume (BV/TV) in RIO of femur at 1 mg/kg, ip and measured after 6 weeks by micro-CT analysis", "type": "functional"}, "Mus musculus [30]": {"tested_on": "Mus musculus", "experiment": "Protective effect in ovariectomy induced osteoporosis C57BL/6 mouse model assessed as increase in bone surface/tissue volume (BS/TV) in RIO of femur at 1 to 3 mg/kg, ip and measured after 6 weeks by micro-CT analysis", "type": "functional, organism-based", "conditions": "dose 1-3 mg/kg"}, "Mus musculus [31]": {"tested_on": "Mus musculus", "experiment": "Protective effect in ovariectomy induced osteoporosis C57BL/6 mouse model assessed as increase in trabecular separation (Tb.Sp) in RIO of femur at 1 to 3 mg/kg, ip and measured after 6 weeks by micro-CT analysis", "type": "functional, organism-based", "conditions": "dose 1-3 mg/kg"}},
  "note": "pIC50: −log10 of the molar value. Calls of active or inactive are those of the source. The rule behind the calls is not given here.",
  "data": [
    {"smiles": "C=C(CCC=C(C)C)[C@H]1CC[C@]2(C)[C@@H]1[C@H](O)C[C@@H]1[C@@]3(C)Cc4cnc(C)nc4C(C)(C)[C@@H]3CC[C@]12C", "values": [
      {"measurement": "inhibition", "setting": "Mus musculus [1]", "value": "inactive"},
      {"measurement": "Activity", "setting": "BMMC [2]", "value": ">= 100%"},
      {"measurement": "inhibition at 0.1 µM", "setting": "BMMC [3]", "value": 100, "unit": "%"},
      {"measurement": "inhibition at 0.01 µM", "setting": "BMMC [4]", "value": 44.4, "unit": "%"},
      {"measurement": "pIC50", "setting": "BMMC [5]", "value": 7.99},
      {"measurement": "half-life at 1 µM", "setting": "[6]", "value": 37.1, "unit": "min"},
      {"measurement": "microsomal CLint at 1 µM", "setting": "[7]", "value": 37.4, "unit": "µL/min/mg"},
      {"measurement": "Tmax", "setting": "[8]", "value": 4.8, "unit": "min"},
      {"measurement": "Cmax", "setting": "[9]", "value": 4180, "unit": "ng/mL"},
      {"measurement": "AUC(0-t) at 24 h", "setting": "[10]", "value": 1170, "unit": "ng·h/mL"},
      {"measurement": "AUC(0-inf)", "setting": "[11]", "value": 1170, "unit": "ng·h/mL"},
      {"measurement": "Vd", "setting": "[12]", "value": 0.413, "unit": "L/kg"},
      {"measurement": "clearance", "setting": "[13]", "value": 14.2, "unit": "mL/min/kg"},
      {"measurement": "half-life", "setting": "[14]", "value": 20.2, "unit": "min"},
      {"measurement": "Tmax", "setting": "[15]", "value": 60, "unit": "min"},
      {"measurement": "Cmax", "setting": "[16]", "value": 823, "unit": "ng/mL"},
      {"measurement": "AUC(0-t) at 24 h", "setting": "[17]", "value": 1210, "unit": "ng·h/mL"},
      {"measurement": "AUC(0-inf)", "setting": "[18]", "value": 1230, "unit": "ng·h/mL"},
      {"measurement": "Activity", "setting": "BMMC [19]", "value": "Tde"},
      {"measurement": "inhibition", "setting": "BMMC [20]", "value": "Dose-Dependent Effect"},
      {"measurement": "inhibition", "setting": "BMMC [21]", "value": "Tde"},
      {"measurement": "inhibition at 1 µM", "setting": "BMMC [22]", "value": 98.8, "unit": "%"},
      {"measurement": "inhibition at 1 µM", "setting": "BMMC [23]", "value": 94.4, "unit": "%"},
      {"measurement": "inhibition at 1 µM", "setting": "BMMC [24]", "value": 62.3, "unit": "%"},
      {"measurement": "Activity", "setting": "BMMC [25]", "value": "Tde"},
      {"measurement": "Activity", "setting": "BMMC [26]", "value": "Active"},
      {"measurement": "Activity", "setting": "BMMC [27]", "value": "Active"},
      {"measurement": "Activity", "setting": "MC3T3-E1", "value": "Active"},
      {"measurement": "Activity", "setting": "[28]", "value": "Non-Toxic"},
      {"measurement": "Activity", "setting": "Mus musculus [29]", "value": 5.6, "unit": "%"},
      {"measurement": "Activity", "setting": "Mus musculus [30]", "value": "Active"},
      {"measurement": "Activity", "setting": "Mus musculus [31]", "value": "Active"}
    ]}
  ]
}
